Literature values as cited in patent US20080305994A1, “Pharmaceutical Compositions and Method for Treating, Reducing, Ameliorating, Alleviating, or Preventing Dry Eye” (priority 2007, published 2008).

Tests used:
[1] = tested on: lipopolysaccharide ("LPS")-induced leukocyte recruitment within pulmonary arterioles, capillaries, and venules; conditions: rabbits, inhibition of PARP
[2] = tested on: intercellular adhesion molecule 1 ("ICAM-1"); conditions: rabbits; inhibition of PARP

SMILES: NC(=O)c1cccc(N)c1 [3-aminobenzamide]
- LPS-induced leukocyte recruitment within pulmonary arterioles, capillaries, and venules [1]: reduced
- expression of intercellular adhesion molecule 1 (ICAM-1) [2]: suppressed
